Laboratory results published in patent publication US4996225A, “Tri-phenyl alkane derivatives and their oestrogenic, anti-oestrogenic and progestanic uses” (Farmos Group Ltd., priority 1982, dated 1991).
Entries after “also recorded” stand apart in the source; their conditions may differ.

Key:
[1] = molecular target: T1, oestrogen receptors (Rattus norvegicus, UniProt P06211); test: affinity for oestrogen receptors, competition with 3H-17-β-estradiol in rat uterus cytosol (dextran-charcoal method); assay type: binding; settings: read-out: Estrogen receptor affinity (concentration of compound where 50% competition (inhibition) with 3H-estradiol occurred)
T1 construct: rat uterus cytosol preparation; from tissue; host or cells: rat uterus cytosol
T1 sequence (P06211 1-600): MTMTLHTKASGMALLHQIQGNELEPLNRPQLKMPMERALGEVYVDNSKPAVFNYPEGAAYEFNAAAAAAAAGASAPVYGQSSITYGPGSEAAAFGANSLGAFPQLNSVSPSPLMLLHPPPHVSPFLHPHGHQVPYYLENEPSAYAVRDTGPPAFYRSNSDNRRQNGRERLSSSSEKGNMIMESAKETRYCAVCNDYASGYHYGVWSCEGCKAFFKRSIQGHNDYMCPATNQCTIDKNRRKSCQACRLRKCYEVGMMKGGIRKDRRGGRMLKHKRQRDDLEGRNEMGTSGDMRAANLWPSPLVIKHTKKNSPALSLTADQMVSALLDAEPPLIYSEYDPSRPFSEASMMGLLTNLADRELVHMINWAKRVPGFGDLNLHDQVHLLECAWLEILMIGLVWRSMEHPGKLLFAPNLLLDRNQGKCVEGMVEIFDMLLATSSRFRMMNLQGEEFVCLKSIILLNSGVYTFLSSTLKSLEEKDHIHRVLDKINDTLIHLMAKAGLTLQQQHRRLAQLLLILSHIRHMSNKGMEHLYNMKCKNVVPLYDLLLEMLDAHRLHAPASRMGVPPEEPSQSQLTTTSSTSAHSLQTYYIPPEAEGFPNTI
Experimental: The affinity of the new compounds for oestrogen receptors was determined by the ability to compete with ^3 H-labelled 17-β-estradiol in rat uterus cytosol preparation. After incubation, receptor-bound and receptor-unbound ligands were separated by a known dextrancharcoal method.

[2] = system: immature mouse uterus; test: oestrogenic effect, uterus weight of immature mice; assay type: in vivo; settings: for estrogenic effect: less than that of estradiol 0.05 mg/kg / increase in uterus weight: 5 mg/kg; for estrogenic effect (in words): immature mice, s.c., three days
Experimental: (§1) The oestrogen-antiestrogen (progesterone) effect of the new compounds in vivo was determined as follows: (1) The oestrogenic properties were determined by administering the new compounds, suspended in sesame oil, subcutaneously to 21 days old immature mice on three consecutive days. The mice were killed on the fourth day and the uterus was weighed. […] The weight correlates with the oestrogenic effect of the compound tested. […] In this case, the ability of the molecules to inhibit oestrogen-induced uterus weight increase was also investigated.

[3] = system: estradiol induced weight increase in immature mouse uterus; test: antiestrogenic effect, inhibition of oestrogen-induced uterus weight increase in immature mice; assay type: in vivo; settings: for anti-estrogenic effect (in words): immature mouse uterus; for effect with estradiol (in words) / reduction in the weights of mice uterus, with estradiol: with estradiol 0.05 mg/kg; for inhibition of estradiol-induced uterus weight increase: estradiol 5 μg/kg
Experimental: as §1

[4] = system: immature mouse uterus; test: progestanic effect, uterus weight of immature mice (alone or with medroxyprogesterone acetate); assay type: in vivo; design: reduction in the weight of a mouse uterus, given alone / reduction in the weight of uterus with medroxyprogesterone / reduction in the weights of mice uterus, given alone: concentration or dose not given beside the values; settings: for reduction in the weights of mice uterus, given alone: Table 2A; for effect with medroxyprogesterone (in words) / reduction in the weights of mice uterus with medroxyprogesterone, compared to control: with medroxyprogesterone 0.06 mg/kg
[5] = system: MCF-7 cell line (human mammary adenocarcinoma); test: anti-tumour effect in vitro, growth of MCF-7 cell line (bioluminescence assay, intracellular ATP); assay type: cell-based; settings: read-out: Antitumour effect against MCF-7 cell line (IC50 = concentration of compound where 50% inhibition of cell growth could be seen)
Experimental: The anti-tumour effect was studied in vitro as follows:
The amount of living cells after 4 h, 24 h and 48 h incubations were determined by bioluminescence assay (intracellular ATP determination).
inhibition of cell growth could be seen.

[6] = system: DMBA-induced rat mammary adenocarcinomas; test: antitumour effect in vivo against DMBA-induced rat mammary adenocarcinoma
Experimental: The anti-tumour effect was investigated in vivo against DMBA-induced rat mammary adenocarcinomas, transplantable mammary and ovarial adenocarcinoma and transplantable prostatic squamous cell carcinoma by the following methods:
Mammary adenocarcinomas were induced by DMBA in 35-40 days old female rats. […] Tumour size and numbers of tumours were evaluated twice a week. Tumour sizes in the control group, treated with solvent, were compared with the test groups.
The size refers to the width×height of the tumour. The growth rate is a difference between sizes compared with that of the first day of the treatment.

| SMILES | IC50 [1] | estrogenic effect: less than that of estradiol 0.05 mg/kg [2] | estrogenic effect (in words) [2] | anti-estrogenic effect (in words) [3] | effect with estradiol (in words) [3] | effect with medroxyprogesterone (in words) [4] | reduction in the weights of mice uterus with medroxyprogesterone, compared to control [4] | IC50 [5] | effect given alone: estrogenic (in words) [2] | increase in the weights of mice uterus, given alone [2] | inhibition of estradiol induced effect in mouse uterus ([3]; 5 mg/kg) | reduction in the weights of mice uterus, with estradiol [3] | increase in uterus weight [2] | inhibition of estradiol-induced uterus weight increase ([3]; 5 mg/kg) | growth rate of the tumours (in words) ([6]; rat, in vivo) | other results |
| --- | --- | --- | --- | --- | --- | --- | --- | --- | --- | --- | --- | --- | --- | --- | --- | --- |
| Oc1ccc([C@@]2(c3ccccc3)OCCC[C@@H]2c2ccccc2)cc1 (relative stereo) [Compound 5, 2,3-diphenyl-2-(4-hydroxyphenyl)tetrahydropyran] | 100 to 1000 nM | 41% | could be seen only at the higher concentrations investigated | no antiestrogenic effect | no synergism | no inhibition | 34% | 1000 to 5000 nM |  |  |  |  |  |  |  | estrogenic effect with increased doses (in words) ([2]; increased doses, effect overcame that of medroxyprogesterone): a weak estrogenic effect could be seen; also recorded: A slight increase in the weight of uterus; decrease of weight of mouse uterus ([4]; 0.05 mg/kg): 34%; effect given alone: progestanic (in words) ([4]; given alone): progestanic; reduction in the weights of mice uterus, given alone ([4]; given alone): 34%; progestanic effect (in words) ([4]; immature mouse uterus): due to its progestanic effect; interaction with medroxyprogesterone (in words) ([4]; with medroxyprogesterone): No inhibition of medroxyprogesterone |
| Oc1ccc([C@@H](c2ccccc2)[C@@H](CCCl)c2ccccc2)cc1 (relative stereo) [Compound 14, 4-chloro-1,2-diphenyl-1-(4-hydroxyphenyl)-butane] | 100 to 1000 nM | about 50% | could be seen only at the higher concentrations investigated | possessed anti-estrogenic effects | anti- |  |  | 5000 to 10000 nM | estrogenic | 50% | 20% | 20% |  |  |  |  |
| CN(C)CCOc1ccc(/C(=C(/CCO)c2ccccc2)c2ccccc2)cc1 [Compound 4, 1,2-diphenyl-1-[4-[2-(N,N-dimethylamino)-ethoxy]-phenyl]-1-buten-4-ol] | 1000 to 10000 nM |  |  | possessed anti-estrogenic effects | anti- | weak | 17% | 1000 to 5000 nM |  |  |  | 21% |  |  |  | estrogenic effect of their own (in words) ([2]; up to 5 mg/kg): no estrogenic effect of their own; inhibition of estradiol induced effect in mouse uterus ([3]; 0.5 mg/kg): 12%; effect given alone: antiestrogenic (in words) ([3]; given alone): anti-; effect given alone: progestanic (in words) ([4]; given alone): progestanic; reduction in the weight of a mouse uterus, given alone ([4]; given alone): 38%; reduction in the weights of mice uterus, given alone ([4]; given alone): 31%; interaction with medroxyprogesterone (in words) ([4]; with medroxyprogesterone): slight inhibition; reduction in the weight of uterus with medroxyprogesterone ([4]; with medroxyprogesterone): 17%; growth rate of tumours compared to controls ([6]; 10 mg/kg): one eighth |
| CN(C)CCOc1ccc(/C(=C(/CCBr)c2ccccc2)c2ccccc2)cc1 [Compound 13, 4-bromo-1,2-diphenyl-1-[4-[2-(N,N-dimethylamino)ethoxy]phenyl]-1-butene] | 100 to 1000 nM | about 50% | could be seen only at the higher concentrations investigated | possessed anti-estrogenic effects | anti- | weak | 14% | 1000 to 5000 nM | estrogenic | 50% | 25% | 25% |  |  |  | antitumour effect against DMBA-induced mammary cancer (in words) ([6]; compared with compound 7): Antitumour effect less than that of compound 7 |
| Oc1ccc(/C(=C(/CCCl)c2ccccc2)c2ccccc2)cc1 [Compound 15, 4-chloro-1,2-diphenyl-1-(4-hydroxyphenyl)-1-butene] | 1000 to 10000 nM |  |  | possessed anti-estrogenic effects | anti- |  |  | 5000 to 10000 nM | estrogenic | 20% | 25% | 25% |  |  |  |  |
| CN(C)CCOc1ccc(/C(=C(/CCF)c2ccccc2)c2ccccc2)cc1 [Compound 21, 4-fluoro-1,2-diphenyl-1-[4-[2-(N,N-dimethylamino)ethoxy]phenyl]-1-butene] | 100 to 1000 nM |  |  |  |  |  |  | 5000 to 10000 nM |  |  |  |  | ≤ 55% | 68-100% | only the growth rate of the tumours was reduced |  |
| CN(C)CCOc1ccc(/C(=C(/CCI)c2ccccc2)c2ccccc2)cc1 [Compound 22, 4-iodo-1,2-diphenyl-1-[4-[2-(N,N-dimethylamino)ethoxy]phenyl]-1-butene] | 100 to 1000 nM |  |  |  |  |  |  | 1000 to 5000 nM |  |  |  |  | ≤ 70% | less than 67% | the growth rate of the tumours decreased | amount of new tumours (in words) ([6]; rat, in vivo): the amount of new tumours decreased |
| CNCCOc1ccc(/C(=C(/CCCl)c2ccccc2)c2ccccc2)cc1 [Compound 23, 4-chloro-1,2-diphenyl-1-[4-[2-(N-methylamino)ethoxy]phenyl]-1-butene] | 1000 to 10000 nM |  |  |  |  |  |  | 1000 to 5000 nM |  |  |  |  | ≤ 55% | 68-100% | only the growth rate of the tumours was reduced |  |
